Measurements reported in PMC5814585, “Modulators of actin-myosin dissociation: basis for muscle type functional differences during fatigue” (American Journal of Physiology - Cell Physiology, 2017).
Where “and” joins values, the source holds several entries; their conditions need not be identical. Equal entries are not always repeated.

Key:
actin.MassS1 [1] = target: T1, actin.MassS1 (Bos taurus, UniProt Q9BE39); assay: ADP dissociation constant (KADP) by competitive inhibition of ATP-induced dissociation, masseter; type: binding, bovine; conditions: for kobs of ATP-induced dissociation with ADP present: 25 µM ATP, 20°C, pH 7.0
T1 construct: from tissue; host or cells: bovine masseter muscle (myosin); rabbit muscle (actin)
Protocol: (§1) In a similar process, ADP dissociation constant (KADP), which defines ADP affinity for actin.S1, was measured by adding to the mixture ADP as a competitive inhibitor of ATP binding. In this case it is convenient to add the ADP to the ATP solution, i.e., 0.5 µM pyr.actin.S1 was mixed with 25 µM ATP with various concentrations of ADP present with the ATP (from 0 to 1200 µM). This approach assumes that ADP is in rapid equilibrium with the actin.S1 complex on the time scale of the ATP-induced dissociation reaction. This was ensured by using the low (25 µM) concentration of ATP. That this assumption holds was tested by repeating the measurement with ADP preincubated with actin.S1 and then mixing with ATP. The observed rate constants were identical in each case.
(§2) (4)) kobs=K1k+2[ATP]/[1+([I]/KI)]

actin.MassS1 [2] = target: T1, actin.MassS1; parameters: method as in Bloemink et al. (4); conditions: ref Bloemink et al. (4); cited from earlier work
actin.MassS1 [3] = target: T1, actin.MassS1; assay: ADP release rate constant (k-AD), ADP displacement by excess ATP; type: biochemical, bovine; parameters: effect of Pi on kobs of ADP release / increase in kobs of ADP release in the presence of phosphate / activation energy (Ea) of k−AD (ADP release): dose or concentration left out as unconfirmed; conditions: for kobs of ADP release (fast phase): 75 µM ADP displaced by 8 mM ATP; for activation energy (Ea) of k−AD (ADP release): Mass
Protocol: Two types of myosins were studied which are known to differ in their dissociation constant for nucleotides ([5], [51]). The rate constant for the release of ADP (k−ADP) is relatively slow for masseter S1 and can easily be measured in an ADP displacement experiment. This step is very fast for a fast muscle isoform and too fast to measure by current equipment. Briefly, actin.^MassS1 saturated with 75 µM of ADP (A.M.D complex) was mixed with a large excess of ATP (8 mM) in the stopped flow. Then the kobs values, fitted to a single exponential equation (Eqn 1) defined the rate constant by which ADP is released by the ternary A.M.D complex (k−AD).
The temperature dependence of the above studied biochemical steps K1k+2, KADP, KPi, and KADP+Pi data were plotted as the natural logarithm of the measured parameter against the reciprocal of temperature in degrees Kelvin (1/T °K) and fitted with linear regression using the Arrhenius (rate constants) or Van’t Hoff (equilibrium constants) equations(7)) lnK1k+2=ln(A)−Ea/RT (8)) lnKeq=ΔS°/R−ΔH°/RT where Ea stands for activation energy, R is the gas constant, and A is a preexponential factor. The values of –Ea/R or or ΔH°/R were derived from the slopes.

actin.PsoS1 [4] = assay: ADP dissociation constant in the presence of phosphate (KADP+Pi) and calculated KPi app, psoas; type: binding, rabbit; conditions: 30 mM Pi
actin.PsoS1 [5] = assay: ADP dissociation constant (KADP) by competitive inhibition of ATP-induced dissociation, psoas; type: binding, rabbit; conditions: for kobs of ATP-induced dissociation with ADP present: 25 µM ATP, 20°C
Protocol: as §1, with “In this case it is convenient to add the ADP to the ATP solution, i.e., 0.5 µM pyr.actin.S1 was mixed with 25 µM ATP with various concentrations of ADP present with the ATP (from 0 to 1200 µM).” left out
as §2

actin.MassS1 [6] = target: T1, actin.MassS1; assay: ADP dissociation constant in the presence of phosphate (KADP+Pi) and calculated KPi app, masseter; type: binding, bovine; conditions: 15 mM Pi

kobs of ATP-induced dissociation with ADP present (actin.MassS1 [1]; 25 µM ADP): 21.7 s⁻¹ | kobs of ATP-induced dissociation with ADP present (actin.MassS1 [1]; 100 µM ADP): 9.1 s⁻¹ | kobs of ATP-induced dissociation with ADP present (actin.MassS1 [1]; 500 µM ADP): 2.6 s⁻¹ | weakening of KADP at pH 6.2 vs pH 7.0 (actin.MassS1 [1]; MassS1, 30°C): 1.5 fold | Kd (actin.MassS1 [1]; Masseter S1, pH 6.2, 10°C): 22 µM and 21.8 µM | Kd (actin.MassS1 [1]; Masseter S1, pH 6.2, 20°C): 48.4 µM and 47 µM and 46.8 µM | Kd (actin.MassS1 [1]; Masseter S1, pH 6.2, 30°C): 83.9 ± 4.7 µM | Kd (actin.MassS1 [1]; Masseter S1, pH 7.0, 10°C): 9.6 µM and 10 µM and 10.3 µM | Kd (actin.MassS1 [1]; Masseter S1, pH 7.0, 20°C): 31 µM and 31.3 µM and 29.7 µM | Kd (actin.MassS1 [1]; Masseter S1, pH 7.0, 30°C): 56.2 ± 6.5 µM | kobs of ADP release (fast phase) (actin.MassS1 [3]; pH 7.0, 5°C): 16.2 s⁻¹ | kobs of ADP release (fast phase) (actin.MassS1 [3]; pH 7.0, 10°C): 26.0 s⁻¹ | kobs of ADP release (fast phase) (actin.MassS1 [3]; pH 7.0, 20°C): 85 s⁻¹ and 85.0 s⁻¹ | kobs of ADP release (fast phase) (actin.MassS1 [3]; pH 7.0, 30°C): 273 s⁻¹ | kobs of ADP release (fast phase) (actin.MassS1 [3]; pH 7.0, […]°C): 46.3 s⁻¹ | activation energy (Ea) of k−AD (ADP release) (actin.MassS1 [3]; pH 6.2, + […] mM Pi): 21.2 ± 0.932 kcal/mol | activation energy (Ea) of k−AD (ADP release) (actin.MassS1 [3]; pH 6.2, no Pi): 20.2 ± 1.46 kcal/mol | activation energy (Ea) of k−AD (ADP release) (actin.MassS1 [3]; pH 7.0, + […] mM Pi): 22.6 ± 1.2 kcal/mol | activation energy (Ea) of k−AD (ADP release) (actin.MassS1 [3]; pH 7.0, no Pi): 18.1 ± 0.98 kcal/mol | Kd (actin.PsoS1 [4]; Psoas S1, pH 6.2, 10°C, read-out: KADP+Pi): 665 ± 39 µM | Kd (actin.PsoS1 [4]; Psoas S1, pH 6.2, 20°C, read-out: KADP+Pi): 514 µM | Kd (actin.PsoS1 [4]; Psoas S1, pH 6.2, 30°C, read-out: KADP+Pi): 926 ± 73 µM | Kd (actin.PsoS1 [4]; Psoas S1, pH 7.0, 10°C, read-out: KADP+Pi): 770 ± 37 µM | Kd (actin.PsoS1 [4]; Psoas S1, pH 7.0, 20°C, read-out: KADP+Pi): 919 ± 72 µM | Kd (actin.PsoS1 [4]; Psoas S1, pH 7.0, 30°C, read-out: KADP+Pi): 942 µM and 1020 µM | Kd (actin.PsoS1 [4]; psoas, 10–20°C, pH 7.0, read-out: apparent KADP in the presence of Pi): ~500 µM | Kd (actin.PsoS1 [5]; Psoas S1, pH 6.2, 10°C, read-out: KADP): 256 ± 32 µM | Kd (actin.PsoS1 [5]; Psoas S1, pH 6.2, 20°C, read-out: KADP): 228 ± 36 µM | Kd (actin.PsoS1 [5]; Psoas S1, pH 6.2, 30°C, read-out: KADP): 236 ± 29 µM | Kd (actin.PsoS1 [5]; Psoas S1, pH 7.0, 10°C, read-out: KADP): 201 ± 34 µM | Kd (actin.PsoS1 [5]; Psoas S1, pH 7.0, 20°C, read-out: KADP): 203 ± 13 µM | Kd (actin.PsoS1 [5]; Psoas S1, pH 7.0, 30°C, read-out: KADP): 232 ± 29 µM | Kd (actin.PsoS1 [5]; psoas actin.S1, between 10 and 30°C, pH 7.0, read-out: ADP affinity (KADP)): ~200 µM | Kd (actin.MassS1 [6]; Masseter S1, pH 6.2, 10°C): 52.2 ± 4.2 µM | Kd (actin.MassS1 [6]; Masseter S1, pH 6.2, 20°C): 82.6 ± 5.7 µM | Kd (actin.MassS1 [6]; Masseter S1, pH 6.2, 30°C): 175 µM | Kd (actin.MassS1 [6]; Masseter S1, pH 7.0, 10°C): 22.5 ± 2.9 µM | Kd (actin.MassS1 [6]; Masseter S1, pH 7.0, 20°C): 44.4 ± 4.6 µM | Kd (actin.MassS1 [6]; Masseter S1, pH 7.0, 30°C): 79.3 ± 6.5 µM
SMILES: Nc1ncnc2c1ncn2[C@@H]1O[C@H](COP(=O)(O)OP(=O)(O)O)[C@@H](O)[C@H]1O [ADP]
kobs of ADP release, published result (actin.MassS1 [2]): 94 s⁻¹ | kobs of ATP-induced dissociation with ADP present (actin.PsoS1 [5]; 0.25 mM ADP, pH 7.0): 45.9 s⁻¹ | kobs of ATP-induced dissociation with ADP present (actin.PsoS1 [5]; 1 mM ADP, pH 7.0): 21.4 s⁻¹ | kobs of ATP-induced dissociation with ADP present (actin.PsoS1 [5]; 4 mM ADP, pH 7.0): 14.5 s⁻¹
